The subject of the assay is Plasmodium berghei. Briefly: Luciferase/luciferin-expressing antifolate-resistant parasites were used to infect a culture of HepG2 cells that were pre-incubated with compounds. Infected hepatocytes emit light due to the luciferase reaction. Assay results are presented as the percent inhibition of light emission compared to control. […]. In kind it is functional. The conditions noted are these: sporozoite; for IC90: read-out: LUCIFERASE INFECTION ASSAY - IC90.

[1] abbreviates: read-out: LUCIFERASE INFECTION ASSAY - IC50.

Consider `COc1cc(Nc2nc(C(F)(F)F)nc3ccccc23)cc(OC)c1OC`, for which the IC90 was more than 10 µM. In addition, the half-maximal inhibitory concentration (IC50) (HEPG2TOX_HILL_SLOPE 10.4, HEPG2TOX_R_SQUARED 0.414, PBLUC_HILL_SLOPE 1.58, PBLUC_R_SQUARED 0.452, read-out: LUCIFERASE INFECTION ASSAY - IC50) worked out at 4.12 µM.
For `COc1cc(CSc2nc3ccccc3c(=O)n2C(C)C)ccc1OC(F)F`, the IC90 amounted to 3.99 µM. Also, the IC50 (HEPG2TOX_HILL_SLOPE 1.32, HEPG2TOX_R_SQUARED 0.932, PBLUC_HILL_SLOPE 1.38, PBLUC_R_SQUARED 0.834, read-out: LUCIFERASE INFECTION ASSAY - IC50) is 0.81 µM.
Consider `c1ccc(SCc2ccc(-c3nc4ccccc4s3)cc2)nc1`, for which the concentration for an effect of 90% (IC90) came out at 8.53 µM. The IC50 (HEPG2TOX_HILL_SLOPE 2.39, HEPG2TOX_R_SQUARED 0.939, PBLUC_HILL_SLOPE 0.884, PBLUC_R_SQUARED 0.644, read-out: LUCIFERASE INFECTION ASSAY - IC50) turned out to be 0.71 µM.
With `CCOC(=O)c1c(S(=O)(=O)Nc2cccc([N+](=O)[O-])c2)c(-c2ccccc2)n(-c2ccccc2)c1C`, the 90% effect concentration (IC90) is more than 6.53 µM. In addition, the 50% inhibitory concentration (IC50) under setting [1] is more than 6.53 µM.
As to `Cc1ccc(S(=O)(=O)NC(=O)c2ccc(Cl)nc2Cl)cc1`, the 90% effect concentration (IC90) is more than 10 µM. The half-maximal inhibitory concentration (IC50) under setting [1] was more than 10 µM.
Regarding `Cc1cc(C)n(CCC(=O)N2CCN(C(c3ccc(F)cc3)c3ccc(F)cc3)CC2)n1`, the IC90 is more than 10 µM. Moreover, the IC50 (HEPG2TOX_HILL_SLOPE 1.37, HEPG2TOX_R_SQUARED 0.338, PBLUC_HILL_SLOPE 18.9, PBLUC_R_SQUARED 0.322, read-out: LUCIFERASE INFECTION ASSAY - IC50) was 9.4 µM.
`CCOC(=O)c1c(CC(C)C)csc1NC(=O)CNc1ccc(-n2cnnn2)cc1`: the IC90 was more than 10 µM. Also, the IC50 (FFLUC_HILL_SLOPE 13, FFLUC_R_SQUARED 0.249, read-out: LUCIFERASE INFECTION ASSAY - IC50) is more than 10 µM.
Consider `COc1ccc(Cl)cc1NC(=O)COC(=O)COc1ccc(/C=C2\SC(=S)N(c3cccc(C(F)(F)F)c3)C2=O)cc1OC`, for which the IC90 was more than 10 µM. Moreover, under “FFLUC_HILL_SLOPE 3.19, FFLUC_R_SQUARED 0.292, read-out: LUCIFERASE INFECTION ASSAY - IC50”, the concentration for half-maximal inhibition (IC50) was more than 10 µM.
Take `CCn1c2ccccc2c2cc(NC(=O)C(C)OC(=O)C3C(C(=O)OC)=C(C)NC(C)=C3C(=O)OC)ccc21` (stereo unspecified): the concentration for an effect of 90% (IC90) is more than 10 µM. Besides, the IC50 (FFLUC_HILL_SLOPE 9.58, FFLUC_R_SQUARED 0.157, read-out: LUCIFERASE INFECTION ASSAY - IC50) is more than 10 µM.
On to `c1ccc(-n2c(SCc3nc(-c4cccs4)no3)nnc2-c2ccc3c(c2)OCO3)cc1`, for which the concentration for an effect of 90% (IC90) is 6.69 µM. Also, the IC50 (HEPG2TOX_HILL_SLOPE 1.25, HEPG2TOX_R_SQUARED 0.965, PBLUC_HILL_SLOPE 1.25, PBLUC_R_SQUARED 0.656, read-out: LUCIFERASE INFECTION ASSAY - IC50) is 1.15 µM.
Regarding `CNC(=S)N/N=C1\C(=O)Nc2ccc(C(C)C)cc21`, the concentration for an effect of 90% (IC90) was more than 10 µM. Besides, the half-maximal inhibitory concentration (IC50) (FFLUC_HILL_SLOPE 0.391, FFLUC_R_SQUARED 0.18, PBLUC_HILL_SLOPE 8.53, PBLUC_R_SQUARED 0.15, read-out: LUCIFERASE INFECTION ASSAY - IC50) was 8.69 µM.
On to `Cc1ccc2nc(NC(=O)c3ccc(Cl)cc3)c(C(=O)NC3CCCCC3)n2c1`, for which the IC90 stood at 6.42 µM. For the same molecule, the half-inhibitory concentration (IC50) (PBLUC_HILL_SLOPE 3.64, PBLUC_R_SQUARED 0.503, read-out: LUCIFERASE INFECTION ASSAY - IC50) turned out to be 3.51 µM.
On to `COc1ccc(C(=O)Nc2ccc3nc(-c4ccccc4)nn3c2)cc1F`, for which the IC90 is more than 10 µM. Moreover, the concentration for half-maximal inhibition (IC50) (FFLUC_HILL_SLOPE 22.9, FFLUC_R_SQUARED 0.117, read-out: LUCIFERASE INFECTION ASSAY - IC50) is more than 10 µM.
In the case of `COc1ccc(-c2cnc3cnc(/C=C/c4ccccc4)cn23)cc1`, the IC90 worked out at 2.11 µM. Where the note is “PBLUC_HILL_SLOPE 3.95, PBLUC_R_SQUARED 0.779, read-out: LUCIFERASE INFECTION ASSAY - IC50”, the IC50 was 1.21 µM.
Take `O=C(Nc1cccc(S(=O)(=O)NC2CC2)c1)c1ccccc1SCc1ccco1`: the IC90 was determined as 4.79 µM. Moreover, the IC50 (FFLUC_HILL_SLOPE 1.74, FFLUC_R_SQUARED 0.575, HEPG2TOX_HILL_SLOPE 9.06, HEPG2TOX_R_SQUARED 0.765, PBLUC_HILL_SLOPE 112, PBLUC_R_SQUARED 0.186, read-out: LUCIFERASE INFECTION ASSAY - IC50) stood at 4.7 µM.
Turning to `Cc1ccccc1/C=N/NC(N)=S`, the IC90 was more than 17.1 µM. Further, the concentration for half-maximal inhibition (IC50) (HEPG2TOX_HILL_SLOPE 1.52, HEPG2TOX_R_SQUARED 0.966, read-out: LUCIFERASE INFECTION ASSAY - IC50) is more than 17.1 µM.
`CN1CCc2nc(NC(=O)C3CCN(c4ncc(C(F)(F)F)cc4Cl)CC3)sc2C1`: the IC90 is more than 10 µM. Besides, the IC50 under setting [1] was more than 10 µM.
Turning to `CCO/C(C)=N\OC(=O)c1c(-c2c(Cl)cccc2Cl)noc1C`, the concentration for an effect of 90% (IC90) was more than 9.24 µM. The half-maximal inhibitory concentration (IC50) under setting [1] was more than 9.24 µM.
Turning to `Cc1ccc(O)c(/C=N/NC(=S)NC(C)(C)C)c1`, the 90% effect concentration (IC90) was more than 12.4 µM. For the same molecule, the IC50 (PBLUC_HILL_SLOPE 24.9, PBLUC_R_SQUARED 0.247, read-out: LUCIFERASE INFECTION ASSAY - IC50) was found to be 11.8 µM.
Consider `Cn1/c(=N/NC=C2CCC/C(=C/c3ccccc3)C2=O)sc2ccccc21`, for which the IC90 was more than 10 µM. Moreover, under “PBLUC_HILL_SLOPE 4.26, PBLUC_R_SQUARED 0.398, read-out: LUCIFERASE INFECTION ASSAY - IC50”, the IC50 turned out to be 8.32 µM.
In the case of `COc1ccc(F)cc1-c1csc(-c2ccc(NC(=O)c3cccs3)cc2)n1`, the concentration for an effect of 90% (IC90) was more than 10 µM. Further, under setting [1], the IC50 was more than 10 µM.
`Cc1ccc(NC(=O)c2cccn(Cc3ccc(C(F)(F)F)cc3)c2=O)cc1C`: the IC90 was more than 8.24 µM. For the same molecule, the concentration for half-maximal inhibition (IC50) under setting [1] was more than 8.24 µM.
Consider `COc1c(C)cc(C(O)c2nc(-c3cccc4ccccc34)c[nH]2)cc1C` (stereo unspecified), for which the 90% effect concentration (IC90) was more than 9.21 µM. Besides, the IC50 (FFLUC_HILL_SLOPE 13.5, FFLUC_R_SQUARED 0.422, HEPG2TOX_HILL_SLOPE 8.48, HEPG2TOX_R_SQUARED 0.286, read-out: LUCIFERASE INFECTION ASSAY - IC50) was more than 9.21 µM.
On to `CCOC(=O)C1=C(CN2CCN(C(c3ccc(F)cc3)c3ccc(F)cc3)CC2)NC(=O)NC1CC` (stereo unspecified), for which the concentration for an effect of 90% (IC90) was more than 10 µM. For the same molecule, the IC50 under setting [1] was more than 10 µM.
Turning to `Cn1cc(C(=O)ONC(=N)c2ccc(C(C)(C)C)cc2)c(C(F)(F)F)n1`, the 90% effect concentration (IC90) was more than 8.96 µM. The half-inhibitory concentration (IC50) under setting [1] was more than 8.96 µM.
For `O=C(c1c[nH]c2ccccc12)C(c1ccccc1)N1CCN(CC(=O)N2CCCC2)CC1` (stereo unspecified), the IC90 is more than 10 µM. The IC50 (PBLUC_HILL_SLOPE 1.28, PBLUC_R_SQUARED 0.65, read-out: LUCIFERASE INFECTION ASSAY - IC50) came out at 3.5 µM.
As to `Cc1ccc2nc(NC(=O)c3cc(F)ccc3F)c(C(=O)NC3CCCC3)n2c1`, the concentration for an effect of 90% (IC90) was 3 µM. For the setting “HEPG2TOX_HILL_SLOPE 2.24, HEPG2TOX_R_SQUARED 0.919, PBLUC_HILL_SLOPE 5.13, PBLUC_R_SQUARED 0.447, read-out: LUCIFERASE INFECTION ASSAY - IC50”, the 50% inhibitory concentration (IC50) was determined as 1.96 µM.
On to `N#Cc1ccc(-c2cnc3cnc(-c4cccc(N)c4)cn23)cc1`, for which the 90% effect concentration (IC90) turned out to be 4.97 µM. Further, the half-maximal inhibitory concentration (IC50) under setting [1] is 2.59 µM.

For the origin of these results see ChEMBL document CHEMBL4483862, “Open-source discovery of chemical leads for next-generation chemoprotective antimalarials” (2018).
